According to patent US4760136A, “Chartreusin derivatives and salts thereof” (Ishihara Sangyo Kaisha, Ltd., priority 1984, dated 1988):
Like-named read-outs stand apart in the source and are kept apart here.

Key:
[1] = Acute toxicity, intravenous (once), ddY mice; format: in vivo; settings: mouse, in vivo, formulated per Preparation Example
Description: In Table 7 are shown acute toxicity values (LD50, mg/kg) in ddY mice in the case of intravenously administering (once) each of the compounds of this invention in the form of preparations shown in the Preparation Examples shown in Table 7.

[2] = system: P-388 leukemia cells; assay: Antitumor activity: P-388 leukemia cells inoculated intraperitoneally, drug administered intravenously, BDF1 mice; format: in vivo; settings: Mus musculus, P388, iv, read-out: T/C (%) of MST; for response vs control in vivo at 20 mg/kg: dose b: 20 mg/kg × 3, i.v. on days 1, 5 and 9
Summary of the method: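 Drug dosing was intravenous on the first, fifth and ninth days after intraperitoneal inoculation of P-388 leukemia cells (1×10^6 per mouse) into BDF1 mice. Vehicles were physiological saline alone, or saline with small amounts of sodium carboxymethyl cellulose or Tween-80.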

[3] = dose c: 40 mg/kg × 3, i.v. on days 1, 5 and 9, BDF1 mice, P-388 i.p.
[4] = dose f: 80 mg/kg × 3, i.v. on days 1, 5 and 9, BDF1 mice, P-388 i.p.

Row | Structure (SMILES) | LD50 ([1]; iv) [mg/kg] | response vs control in vivo at 20 mg/kg ([2]; BDF1 mice, P-388 i.p.) [%] | response vs control in vivo at 40 mg/kg [2, 3] [%] | further results
1 | COC1C(O)C(C)OC(OC2C(Oc3cccc4c(OC(=O)C(C)CNC(=O)CN)c5c(=O)oc6ccc(C)c7c(=O)oc(c34)c5c67)OC(C)C3OC(c4ccccc4)OC32)C1O (centres unmarked) [Compound No. 3] | ≥ 40 | 150 | 192 | 
2 | COC1C(O)C(C)OC(OC2C(Oc3cccc4c(OC(=O)C(C)CNC(=O)C(F)(F)F)c5c(=O)oc6ccc(C)c7c(=O)oc(c34)c5c67)OC(C)C3OC(C)(C)OC32)C1O (centres unmarked) [compound 85] | ≥ 100 |  |  | response vs control in vivo at 80 mg/kg [2, 4]: 157%
3 | COc1cccc(C(=O)Oc2c3cccc(O[C@@H]4O[C@H](C)[C@@H]5OC(c6ccccc6)O[C@@H]5[C@H]4O[C@H]4O[C@H](C)[C@H](O)[C@H](OC)[C@H]4O)c3c3oc(=O)c4c(C)ccc5oc(=O)c2c3c54)c1 (some centres unmarked) [compound 193] | ≥ 40 |  |  | response vs control in vivo at 10 mg/kg ([2]; dose a: 10 mg/kg × 3, i.v. on days 1, 5 and 9, BDF1 mice, P-388 i.p.): 162%
4 | COC1C(O)C(C)OC(OC2C(Oc3cccc4c(OC(=O)CCNC=O)c5c(=O)oc6ccc(C)c7c(=O)oc(c34)c5c67)OC(C)C3OC(c4ccsc4)OC32)C1O (centres unmarked) [compound 81] | ≥ 40 | 139 | 173 | 
5 | COC1C(O)C(C)OC(OC2C(Oc3cccc4c(OC(=O)C(CC[S+](C)[O-])NC(=O)OCc5ccccc5)c5c(=O)oc6ccc(C)c7c(=O)oc(c34)c5c67)OC(C)C3OC(C)(C)OC32)C1O (centres unmarked) [compound 102] | ≥ 100 |  |  | response vs control in vivo at 80 mg/kg [2, 4]: 187%
6 | COC1C(O)C(C)OC(OC2C(Oc3cccc4c(OC(=O)CCNC(=O)CN)c5c(=O)oc6ccc(C)c7c(=O)oc(c34)c5c67)OC(C)C3OC(c4ccccc4)OC32)C1O (centres unmarked) [compound 10] | ≥ 40 | 161 | 197 | 
7 | COC1C(O)C(C)OC(OC2C(Oc3cccc4c(OC(=O)CNC(=O)c5ccccc5)c5c(=O)oc6ccc(C)c7c(=O)oc(c34)c5c67)OC(C)C3OC(C)(C)OC32)C1O (centres unmarked) [compound 88] | ≥ 100 |  |  | response vs control in vivo at 50 mg/kg ([2]; dose d: 50 mg/kg × 3, i.v. on days 1, 5 and 9, BDF1 mice, P-388 i.p.): 157%
8 | COC1C(O)C(C)OC(OC2C(Oc3cccc4c(OC(=O)c5ccc(Br)cc5)c5c(=O)oc6ccc(C)c7c(=O)oc(c34)c5c67)OC(C)C3OC(c4ccccc4)OC32)C1O (centres unmarked) [compound 229] | ≥ 80 |  |  | response vs control in vivo at 60 mg/kg ([2]; dose e: 60 mg/kg × 3, i.v. on days 1, 5 and 9, BDF1 mice, P-388 i.p.): 167%
9 | CCC1O[C@H]2[C@@H](O1)[C@@H](C)O[C@@H](Oc1cccc3c(OC(=O)C(C)CC)c4c(=O)oc5ccc(C)c6c(=O)oc(c13)c4c56)[C@@H]2O[C@H]1O[C@H](C)[C@H](O)[C@H](OC)[C@H]1O (some centres unmarked) [compound 219] |  |  |  | LD50 [1]: ≥ 80 mg/kg; response vs control in vivo at 40 mg/kg [2]: 130%; response vs control in vivo at 80 mg/kg [2]: 182%
10 | COC1C(O)C(C)OC(OC2C(Oc3cccc4c(OC(=O)C(NC(=O)CNC(=O)CNC(=O)OCc5ccccc5)C(C)C)c5c(=O)oc6ccc(C)c7c(=O)oc(c34)c5c67)OC(C)C3OC(c4ccccc4)OC32)C1O (centres unmarked) [compound 115] | ≥ 40 | 135 |  | 
11 | CO[C@H]1[C@@H](O)[C@@H](C)O[C@H](O[C@H]2[C@H](Oc3cccc4c(OC(=O)CCC(=O)c5ccc(F)cc5)c5c(=O)oc6ccc(C)c7c(=O)oc(c34)c5c67)O[C@H](C)[C@@H]3OC(C)(C)O[C@@H]32)[C@@H]1O [compound 206] | ≥ 80 |  | 139 | response vs control in vivo at 80 mg/kg [2, 4]: 180%
12 | COC1C(O)C(C)OC(OC2C(Oc3cccc4c(OC(=O)CN(C)C(=O)C(F)(F)F)c5c(=O)oc6ccc(C)c7c(=O)oc(c34)c5c67)OC(C)C3OC(c4ccccc4)OC32)C1O (centres unmarked) [Compound No. 25] | ≥ 40 | 212 |  | 
13 | CO[C@H]1[C@@H](O)[C@@H](C)O[C@H](O[C@H]2[C@H](Oc3cccc4c(OC(=O)C5CC5C)c5c(=O)oc6ccc(C)c7c(=O)oc(c34)c5c67)O[C@H](C)[C@@H]3OC(C)(C)O[C@@H]32)[C@@H]1O (some centres unmarked) [Compound No. 178] | ≥ 80 |  | 142 | response vs control in vivo at 80 mg/kg [2, 4]: 181%
14 | COC1C(O)C(C)OC(OC2C(Oc3cccc4c(OC(=O)c5cccc(N(C)C)c5)c5c(=O)oc6ccc(C)c7c(=O)oc(c34)c5c67)OC(C)C3OC(c4cccc(F)c4)OC32)C1O (centres unmarked) [Compound No. 158, 6-O-(m-Dimethylaminobenzoyl)-3',4'-O-(m-Fluorobenzylidene)-Chartreusin] | ≥ 80 |  | 174 | response vs control in vivo at 80 mg/kg [2, 4]: 205%
15 | COC1C(O)C(C)OC(OC2C(Oc3cccc4c(OC(=O)CC(C)NC(=O)C(F)(F)F)c5c(=O)oc6ccc(C)c7c(=O)oc(c34)c5c67)OC(C)C3OC(c4ccccc4)OC32)C1O (centres unmarked) [Compound No. 39] | ≥ 40 | 165 | 214 | 
16 | COC1C(O)C(C)OC(OC2C(Oc3cccc4c(OC(=O)CNC(=O)OCc5ccccc5)c5c(=O)oc6ccc(C)c7c(=O)oc(c34)c5c67)OC(C)C3OC(c4ccccc4)OC32)C1O (centres unmarked) [compound 71] | ≥ 40 | 157 |  | 
17 | COC1C(O)C(C)OC(OC2C(Oc3cccc4c(OC(=O)CCNC(=O)OCc5ccccc5)c5c(=O)oc6ccc(C)c7c(=O)oc(c34)c5c67)OC(C)C3OC(C)(C)OC32)C1O (centres unmarked) [compound 107] | ≥ 100 |  | 139 | response vs control in vivo at 80 mg/kg [2, 4]: 185%
18 | COC1C(O)C(C)OC(OC2C(Oc3cccc4c(OC(=O)COC(=O)CCCl)c5c(=O)oc6ccc(C)c7c(=O)oc(c34)c5c67)OC(C)C3OC(c4ccccc4)OC32)C1O (centres unmarked) [Compound No. 149] | ≥ 40 | 203 |  | 
19 | COC1C(O)C(C)OC(OC2C(Oc3cccc4c(OC(=O)C5CC5)c5c(=O)oc6ccc(C)c7c(=O)oc(c34)c5c67)OC(C)C3OC(c4ccsc4)OC32)C1O (centres unmarked) [Compound No. 155] | ≥ 40 | 171 | 183 | 
20 | CCCCCC(=O)Oc1c2cccc(OC3OC(C)C4OC(c5ccccc5)OC4C3OC3OC(C)C(O)C(OC)C3O)c2c2oc(=O)c3c(C)ccc4oc(=O)c1c2c43 (centres unmarked) [Compound No. 196, 6-O-(n-Hexanoyl)-3',4'-O-Benzylidene-Chartreusin] | ≥ 80 |  | 208 | 
21 | COC1C(O)C(C)OC(OC2C(Oc3cccc4c(OC(=O)C(Cc5ccccc5)NC(=O)OCc5ccccc5)c5c(=O)oc6ccc(C)c7c(=O)oc(c34)c5c67)OC(C)C3OC(c4ccccc4)OC32)C1O (centres unmarked) [compound 122] | ≥ 40 |  | 135 | 
22 | COC1C(O)C(C)OC(OC2C(Oc3cccc4c(OC(=O)CC(C)CC(C)(C)C)c5c(=O)oc6ccc(C)c7c(=O)oc(c34)c5c67)OC(C)C3OC(c4ccccc4)OC32)C1O (centres unmarked) [Compound No. 236, 6-O-(3,5,5-Trimethyl-n-Hexanoyl)-3',4'-O-Benzylidene-Chartreusin] | ≥ 80 |  | 145 | 
23 | COC1C(O)C(C)OC(OC2C(Oc3cccc4c(OC(=O)CCNC(=O)C(F)(F)F)c5c(=O)oc6ccc(C)c7c(=O)oc(c34)c5c67)OC(C)C3OC(c4cccc(Br)c4)OC32)C1O (centres unmarked) [Compound No. 31] | ≥ 80 |  | 171 | response vs control in vivo at 80 mg/kg [2, 4]: 238%
24 | COC1C(O)C(C)OC(OC2C(Oc3cccc4c(OC(=O)CCc5ccccc5)c5c(=O)oc6ccc(C)c7c(=O)oc(c34)c5c67)OC(C)C3OC(c4ccccc4)OC32)C1O (centres unmarked) [Compound No. 154] | ≥ 40 | 205 | 214 | 
25 | C/C=C(\C)C(=O)Oc1c2cccc(O[C@@H]3O[C@H](C)[C@@H]4OC(c5ccccc5)O[C@@H]4[C@H]3O[C@H]3O[C@H](C)[C@H](O)[C@H](OC)[C@H]3O)c2c2oc(=O)c3c(C)ccc4oc(=O)c1c2c43 (some centres unmarked) [compound 215] |  |  |  | LD50 [1]: ≥ 80 mg/kg; response vs control in vivo at 40 mg/kg [2]: 131%; response vs control in vivo at 80 mg/kg [2]: 158%
26 | COc1ccc(C2OC3C(C)OC(Oc4cccc5c(OC(=O)CCNC(=O)c6ccccc6)c6c(=O)oc7ccc(C)c8c(=O)oc(c45)c6c78)C(OC4OC(C)C(O)C(OC)C4O)C3O2)cc1 (centres unmarked) [compound 96] | ≥ 40 |  | 162 | 
